Data set [1] has as its target SMAD2. The conditions noted are these: ASO.
Data set [2] concerns the target MAP2K6. As to conditions: ASO.

The text below walks through data of the OligoGym collection.

These antisense oligonucleotides have a phosphorothioate backbone; sugars and methylation of C are not fully specified.
Further: test concentration or dose not given here.

For the sequence AAACAGCCTCTTGTATCG, in data set [1], the remaining target (mRNA or protein) (fraction of control) was 0.29.

With AAACTTCCCCACCTATGT, the remaining target (mRNA or protein) (fraction of control) in data set [1] was determined as 0.18. AAAGCCATCTACAGTGAG displayed a remaining target (mRNA or protein) (fraction of control) in data set [1] of 0.34. In data set [1], AAGTGCTTGGTATGGTAA gave a remaining target (mRNA or protein) (fraction of control) of 0.43. Still for that read-out and setting: to AATGCTATGACAGAAGAG belongs 0.76; to ACAGATTCCACAAGGTGC, 0.22. On the same count and under the same terms, the value for ACTGTAGAGGTCCATTCA was 0.42; that for AGATTACAGCCTGGTGGA was 0.57.

The sequence AGCTGCTTCTCCGCCGCC gave a remaining target (mRNA or protein) (fraction of control) in data set [1] of 0.27. Still for that read-out and setting: to CACCCTTTCACAAAACTC belongs 0.15. Still for that read-out and setting: the value for CAGGTTCTGAGTAAGTAA was 0.54.

CATTAGAAGGCTTGACGTCT came in with a remaining target (mRNA or protein) (fraction of control) in data set [2] of 0.67. On the same count and under the same terms, to CATTTTCCCCTTTCCTTTGA belongs at least 1. Same read-out and setting: to CCCTAAAAGATGTGGTGATC belongs at least 1. Consider CCTTCTTGTCATTTCTAC, for which the remaining target (mRNA or protein) (fraction of control) in data set [1] is 0.57. In turn, CCTTTCGACTGAGACATTTT returned a remaining target (mRNA or protein) (fraction of control) in data set [2] of at least 1.

For CGAGAAAGAACTTTTGCTGT, in data set [2], the remaining target (mRNA or protein) (fraction of control) was at least 1. The same measure, in the same setting: the value for CGCTGCTGAAGAAAGATGCG was 0.85. For the sequence CGTGAATGGCAAGATGGA, the remaining target (mRNA or protein) (fraction of control) in data set [1] came out at 0.47. As for CTACAAATCTACTTATAATT, the remaining target (mRNA or protein) (fraction of control) in data set [2] was determined as 0.99. Still for that read-out and setting: to CTGAGACATTTTCCCCTTTC belongs 0.91; to CTTCACCCCGAAACCCACCA, 0.34; to CTTGCCTTTCGACTGAGACA, 0.58. On the same count and under the same terms, to GAATTTATCTAGTGATGTAT belongs at least 1; to GACATTTTCCCCTTTCCTTT, 0.85; to GACTGAGACATTTTCCCCTT, 0.88. In data set [2], GAGACATTTTCCCCTTTCCT registered a remaining target (mRNA or protein) (fraction of control) of 0.66. Still for that read-out and setting: the value for GATGCATATTAAATAATTTC was 0.83; that for GCCAGGGCTGGCAGCTAAAA was 0.8. For GCCATAAAAGGTGACAGTGA, in data set [2], the remaining target (mRNA or protein) (fraction of control) was found to be 0.86. Same read-out and setting: to GCTCCAGGTCATCTGCCTTC belongs 0.65; to GGAAATCGAAGGATGGCCAA, at least 1; to GGTGGGCCGAACCAGAAGCC, at least 1.

In turn, GTGAATTGCCAAATAGACAC showed a remaining target (mRNA or protein) (fraction of control) in data set [2] of 0.8.

As to GTTTCTCTTGACCGATGCAG, the remaining target (mRNA or protein) (fraction of control) in data set [2] was 0.55. Still for that read-out and setting: to GTTTCTGTTCCTGGCTATTT belongs 0.79. Same read-out and setting: to TATCAAAGAATTACTCACTA belongs 0.85. The same measure, in the same setting: the value for TATGTAGGCCGTTCTTTGGA was 0.95. As to TATTTTCCCTGTCAATTACT, the remaining target (mRNA or protein) (fraction of control) in data set [2] was 0.99. On the same count and under the same terms, to TCGACTGAGACATTTTCCCC belongs 0.8; to TCTGTAGCTAGTTTTGCAAC, 0.88; to TGCCTTTCGACTGAGACATT, 0.67. The same measure, in the same setting: the value for TTAGTCTCCAAGAATCAGTT was 0.96; that for TTGGAGTCTAAATCTCTAGG was at least 1. The same measure, in the same setting: the value for TTTCGACTGAGACATTTTCC was at least 1; that for TTTTCCCCTTTCCTTTGATG was at least 1.
